We go through 75 compounds from ChEMBL document CHEMBL5050843, “Amide substituted thiazoles as protein secretion inhibitors” (2019).

The nature of test [1]: Inhibition of constitutively active PR1ss-Gluc secretion in human Flp-In-T-REx-293 cells measured by Gaussia luciferase reporter gene method. It counts as functional, cell-based. (In general: Reporter assays use an easily measured gene product as a stand-in for the process of interest.)
Test [2] in a line: Inhibition of constitutively active VCAMss-Gluc secretion in human Flp-In-T-REx-293 cells measured by Gaussia luciferase reporter gene method. The class given is functional, cell-based.

By IC50 is commonly meant the concentration at which inhibition is half-maximal. Read a high IC50 as weaker potency in that assay. For the compound `CC(C)(C)c1csc(NC(=O)CCc2ccccc2)n1`, the IC50 in test [1] was > 25 µM; in test [2] it was 17.4 µM. Turning to `CC(C)(C)c1csc(NC(=O)Cc2cn(CC3CCCCC3)c3ccc(Cl)cc23)n1`, the IC50 in test [1] was > 25 µM; in test [2] it was 0.714 µM.

As to `CC(C)(C)c1csc(NC(=O)C2CCOC2)n1` (stereo not drawn), the IC50 in test [1] and in test [2] was > 25 µM in each case. In the case of `CC(C)CC(C(=O)Nc1nc(C(C)(C)C)cs1)c1csc2ccc(Cl)cc12` (stereo not drawn), the results for the IC50 in test [1] and in test [2] were > 25 µM and 6.53 µM, respectively. Consider `CC(C)(C)c1csc(NC(=O)C2=CCCC2)n1`, for which the IC50 in test [1] and in test [2] was > 25 µM each time. For the compound `CC(C)(C)c1csc(NC(=O)C2CCCc3ccccc32)n1` (stereo not drawn), the IC50 in test [1] and in test [2] was > 25 µM each time.

For the compound `CC(C)(C)c1csc(NC(=O)[C@@H]2CCCO2)n1`, the concentration for half-maximal inhibition (IC50) in test [1] and in test [2] was > 25 µM throughout. Consider `CC(C)(C)c1csc(NC(=O)Cc2c[nH]c3ccccc23)n1`, for which the IC50 in test [1] and in test [2] was > 25 µM each time.

As for `CC(C)(C)c1csc(NC(=O)Cc2ccccc2Cl)n1`, the IC50 was > 25 µM in test [1] and 18.4 µM in test [2]. Consider `C[C@@H](C(=O)Nc1nc(C(C)(C)C)cs1)c1ccccc1`, for which the figures for the IC50 in test [1] and in test [2] were > 25 µM and 11.1 µM, respectively. The matching figures for `CC(C)(C)c1csc(NC(=O)[C@H](O)c2cccc(Cl)c2)n1`: > 25 µM and > 25 µM. On to `C=CCC(C)(C)c1csc(NC(=O)Cc2csc3ccc(Cl)cc23)n1`, for which the values for the IC50 in test [1] and in test [2] were > 25 µM and 0.775 µM, respectively. `CC(C)(C)c1csc(NC(=O)Cc2csc3ccc(-c4ccccc4)cc23)n1`: the IC50 in test [1] is > 25 µM; in test [2], 4.57 µM. Consider `CC(C)(C)c1csc(NC(=O)Cc2ccc(Cl)c(Cl)c2)n1`, for which the IC50 in test [1] was > 25 µM; in test [2], 2.64 µM. For the compound `Cc1cccc2scc(CC(=O)Nc3nc(C(C)(C)C)cs3)c12`, the IC50 in test [1] was > 25 µM; in test [2], 3.2 µM.

In the case of `CC(C)(C)c1csc(NC(=O)Cc2cc(F)cc(Cl)c2)n1`, the results for the IC50 in test [1] and in test [2] were > 25 µM and 1.91 µM, respectively. Take `CC(C)(C)c1csc(NC(=O)Cc2cn(Cc3ccc(Cl)cc3)c3ccc(Cl)cc23)n1`: the IC50 in test [1] was > 25 µM; in test [2] it was 0.325 µM. In the case of `CC(C)(C)c1csc(NC(=O)CC2CCCC2)n1`, the IC50 was > 25 µM in test [1] and 9.82 µM in test [2].

In the case of `CC(C)(C)c1csc(NC(=O)Cc2cccc3ccccc23)n1`, the IC50 was > 25 µM in test [1] and 3.45 µM in test [2].

In the case of `CC(C)(C)c1csc(NC(=O)CCc2csc3ccccc23)n1`, the IC50 in test [1] was > 25 µM; in test [2], 23.1 µM.

For `CC(C)(C)c1csc(NC(=O)Cc2ccc(Cl)cc2)n1`, the IC50 in test [1] is > 25 µM; in test [2], 4.88 µM.

For the compound `CC(C)(C)c1csc(NC(=O)Cc2ccc3cn[nH]c3c2)n1`, the IC50 in test [1] and in test [2] was > 25 µM each time.

Take `CC(C)(CCO)c1csc(NC(=O)Cc2cc(Cl)cc(Cl)c2)n1`: the IC50 in test [1] and in test [2] was > 25 µM each time. Turning to `CC(C)(CCO)c1csc(NC(=O)Cc2csc3ccc(Cl)cc23)n1`, the IC50 in test [1] and in test [2] was > 25 µM each time. Regarding `CC(C)(C)c1csc(NC(=O)Cc2cn(Cc3cccc(Cl)c3)c3ccc(Cl)cc23)n1`, the IC50 is > 25 µM in test [1] and 0.464 µM in test [2]. On to `CC(C)(C)c1csc(NC(=O)C2(c3cccc(Cl)c3)CCCC2)n1`, for which the figures for the IC50 in test [1] and in test [2] were > 25 µM and 8.15 µM, respectively. On to `CC(C)(C)c1csc(NC(=O)c2cccc(Cl)c2)n1`, for which the values for the IC50 in test [1] and in test [2] were > 25 µM and 8.4 µM, respectively. For the compound `CC(C)(C)c1csc(NC(=O)Cc2coc3ccccc23)n1`, the IC50 in test [1] was > 25 µM; in test [2] it was 5.3 µM.

With `CC(C)(C)c1csc(NC(=O)Cc2ccc3ccccc3c2)n1`, the IC50 is > 25 µM in test [1] and 15 µM in test [2]. Consider `CC(C)(C)c1csc(NC(=O)Cc2csc3ccccc23)n1`, for which the IC50 is > 25 µM in test [1] and 1.76 µM in test [2]. The matching figures for `Cn1cc(CC(=O)Nc2nc(C(C)(C)C)cs2)c2ccccc21`: > 25 µM and 4.51 µM. As to `CC(C)(C)c1csc(NC(=O)C2CCCC2)n1`, the figures for the IC50 in test [1] and in test [2] were > 25 µM and 17 µM, respectively. Take `CC[C@@H](C(=O)Nc1nc(C(C)(C)C)cs1)c1ccccc1`: the values for the IC50 in test [1] and in test [2] were > 25 µM and 9.54 µM, respectively. For the compound `Cc1ccc(CC(=O)Nc2nc(C(C)(C)C)cs2)c(C)c1`, the IC50 in test [1] was > 25 µM; in test [2], 7.45 µM. With `CC(C)(C)c1csc(NC(=O)c2ccc3c(c2)CCCO3)n1`, the IC50 in test [1] is > 25 µM; in test [2], 6.09 µM. In the case of `CC(C)(C)c1csc(NC(=O)C(Cc2ccccc2)c2csc3ccc(Cl)cc23)n1` (stereo not drawn), the values for the IC50 in test [1] and in test [2] were > 25 µM and 3.92 µM, respectively. `CC(C)(C)c1csc(NC(=O)Cc2cccc(Br)c2)n1`: the IC50 in test [1] was > 25 µM; in test [2] it was 5.71 µM. As to `CC(C)(C)c1csc(NC(=O)C(C)(C)c2ccccc2)n1`, the IC50 in test [1] is > 25 µM; in test [2] it was 14.7 µM. For `CC(C)(C)c1csc(NC(=O)Cc2cccc(C(F)(F)F)c2)n1`, the IC50 is > 25 µM in test [1] and 6.81 µM in test [2].

For `CC(C)(C)c1csc(NC(=O)Cc2cn(C(=O)c3ccccc3)c3ccc(Cl)cc23)n1`, the IC50 was > 25 µM in test [1] and 2.05 µM in test [2].

Regarding `CC(C)(C)c1csc(NC(=O)CC2CCCCCC2)n1`, the IC50 in test [1] was > 25 µM; in test [2], 5.07 µM.

Consider `CC(C)(C)c1csc(NC(=O)c2ccc3cn[nH]c3c2)n1`, for which the IC50 in test [1] and in test [2] was > 25 µM each time. Regarding `CC(C)(C)c1csc(NC(=O)Cc2cccc(C#N)c2)n1`, the figures for the IC50 in test [1] and in test [2] were > 25 µM and 15.4 µM, respectively. Regarding `CC(C)(C)c1csc(NC(=O)C2=CCCCC2)n1`, the IC50 in test [1] is > 25 µM; in test [2] it was 23.7 µM. As to `CC(C)(C)c1csc(NC(=O)Cc2cc(Cl)cc(Cl)c2)n1`, the IC50 was > 25 µM in test [1] and 1.69 µM in test [2]. The matching figures for `CC(C)(C)c1csc(NC(=O)C2Cc3ccccc3C2)n1`: > 25 µM and 11.2 µM. Regarding `C[C@H](C(=O)Nc1nc(C(C)(C)C)cs1)c1ccccc1`, the IC50 in test [1] and in test [2] was > 25 µM in each case. Consider `CC(C)(C)c1csc(NC(=O)CC2CCCCC2)n1`, for which the IC50 in test [1] is > 25 µM; in test [2], 6.09 µM. Take `CC(C)(C)c1csc(NC(=O)c2ccc3[nH]ncc3c2)n1`: the IC50 was > 25 µM in test [1] and 20.7 µM in test [2]. The matching figures for `CC(C)(C)c1csc(NC(=O)c2ccccc2Cl)n1`: > 25 µM and > 25 µM. `CC1(c2csc(NC(=O)Cc3cn(Cc4ccccc4)c4ccc(Cl)cc34)n2)CC1`: the figures for the IC50 in test [1] and in test [2] were > 25 µM and 0.908 µM, respectively. For `CC(C)(C)c1csc(NC(=O)Cc2cc(Cl)cc(C(F)(F)F)c2)n1`, the results for the IC50 in test [1] and in test [2] were > 25 µM and 1.54 µM, respectively. Turning to `CC(C)(C)c1csc(NC(=O)Cc2cn(Cc3ccccn3)c3ccc(Cl)cc23)n1`, the IC50 in test [1] was > 25 µM; in test [2] it was 2.08 µM. The matching figures for `COc1cccc(CC(=O)Nc2nc(C(C)(C)C)cs2)c1`: > 25 µM and 10.3 µM. For the compound `CC(C)(C)c1csc(NC(=O)C(C)(C)c2ccc(Cl)c(Cl)c2)n1`, the IC50 in test [1] is > 25 µM; in test [2] it was 6.49 µM. With `CC(C)(C)c1csc(NC(=O)Cc2cc(F)c(F)c(F)c2)n1`, the figures for the IC50 in test [1] and in test [2] were > 25 µM and 8.18 µM, respectively. For the compound `Cc1cc(C(=O)Nc2nc(C(C)C)cs2)cs1`, in test [2], the IC50 worked out at 22.8 µM. As to `CC(C)(C)c1csc(NC(=O)Cc2cccnc2)n1`, the IC50 in test [1] and in test [2] was > 25 µM in each case. In test [2], `Cn1cc(C(=O)Nc2nc(C(C)(C)C)cs2)cn1` yielded an IC50 of 22.2 µM. As for `CC(C)(C)c1csc(NC(=O)Cc2ccccc2)n1`, the IC50 in test [1] was > 25 µM; in test [2], 24.1 µM. For `CCOC(=O)CC(C)(C)c1csc(NC(=O)Cc2cc(Cl)cc(Cl)c2)n1`, the IC50 in test [1] is > 25 µM; in test [2] it was 8.93 µM. `CC(C)(C)c1csc(NC(=O)C2CCOCC2)n1`: the IC50 in test [1] and in test [2] was > 25 µM each time. As to `CC(C)(C)c1csc(NC(=O)Cc2cn(Cc3cccnc3)c3ccc(Cl)cc23)n1`, the IC50 in test [1] is > 25 µM; in test [2], 3.67 µM. Consider `CC(C)(C)c1csc(NC(=O)C(C)(C)C2CCCCC2)n1`, for which the figures for the IC50 in test [1] and in test [2] were > 25 µM and 9.01 µM, respectively. Take `CC(C)(C)c1csc(NC(=O)Cc2csc3ccc(Br)cc23)n1`: the IC50 was > 25 µM in test [1] and 1.4 µM in test [2].

Consider `CC(C)(C)c1csc(NC(=O)CC2CCCc3ccccc32)n1` (stereo not drawn), for which the figures for the IC50 in test [1] and in test [2] were > 25 µM and 9.01 µM, respectively.

Regarding `CC(C)(C)c1csc(NC(=O)C2CCc3ccccc3C2)n1` (stereo not drawn), the results for the IC50 in test [1] and in test [2] were > 25 µM and 11.8 µM, respectively. As to `CC(C)(C)c1csc(NC(=O)Cc2cc3ccccc3s2)n1`, the IC50 in test [1] and in test [2] was > 25 µM throughout.

`CC(C)(C)c1csc(NC(=O)c2ccc3c(c2)OCCN3)n1`: the IC50 in test [1] and in test [2] was > 25 µM each time. With `CC(C)(C)c1csc(NC(=O)C(C)(C)c2cccc(Cl)c2)n1`, the IC50 was > 25 µM in test [1] and 8.6 µM in test [2]. Regarding `CC(C)(C)c1csc(NC(=O)Cc2cccc(Cl)c2)n1`, the IC50 in test [1] is > 25 µM; in test [2], 7.85 µM. On to `COCCC(C)(C)c1csc(NC(=O)Cc2csc3ccc(Cl)cc23)n1`, for which the IC50 in test [1] and in test [2] was > 25 µM in each case.

As to `CC(C(=O)Nc1nc(C(C)(C)C)cs1)c1csc2ccc(Cl)cc12` (stereo not drawn), the IC50 in test [1] is > 25 µM; in test [2], 3.21 µM.

For `CC(C)(C)c1csc(NC(=O)CC2CCOCC2)n1`, the IC50 in test [1] and in test [2] was > 25 µM throughout. For `CC(C)(C)c1csc(NC(=O)C2(c3cccc(Cl)c3)CC2)n1`, the results for the IC50 in test [1] and in test [2] were > 25 µM and 19.6 µM, respectively.
